Target: human TYK2 (JH2domain-pseudokinase) (Homo sapiens (Human), UniProt P29597)
Test: TYK2 JH2 Domain Binding Assay (KINOMEscan)
Conditions: 11-point 3-fold dilution, top concentration 30,000 nM, duplicate; read-out: hTYK2_JH2_Binding (Kd; nM)
Protocol: Binding constants for compounds of the present invention against the JH2 domain were determined by the following protocol for a KINOMEscan® assay (DiscoveRx). A fusion protein of a partial length construct of human TYK2 (JH2domain-pseudokinase) (amino acids G556 to D888 based on reference sequence NP_003322.3) and the DNA binding domain of NFkB was expressed in transiently transfected HEK293 cells. From these HEK 293 cells, extracts were prepared in M-PER extraction buffer (Pierce) in the presence of Protease Inhibitor Cocktail Complete (Roche) and Phosphatase Inhibitor Cocktail Set II (Merck) per manufacturers' instructions. The TYK2(JH2domain-pseudokinase) fusion protein was labeled with a chimeric double-stranded DNA tag containing the NFkB binding site (5′-[…]-3′) fused to an amplicon for qPCR readout, which was added directly to the expression extract (the final concentration of DNA-tag in the binding reaction is 0.1 nM).
The liganded beads were blocked with excess biotin and washed with blocking buffer (SeaBlock (Pierce), 1% BSA, 0.05% Tween 20, 1 mM DTT) to remove unbound ligand and to reduce nonspecific binding.
Extracts were loaded with DNA-tag and diluted into the binding reaction in a two step process. First extracts were diluted 1:100 in 1× binding buffer (PBS/0.05% Tween 20/10 mM DTT/0.1% BSA/2 μg/ml sonicated salmon sperm DNA) containing 10 nM DNA-tag. This dilution was allowed to equilibrate at room temperature for 15 minutes and then subsequently diluted 1:100 in 1× binding buffer. […] Kds were determined using an 11-point 3-fold compound dilution series with three DMSO control points. […] The compounds were then diluted directly into the assays such that the final concentration of DMSO was 0.9%. All reactions performed in polypropylene 384-well plates. Each was a final volume of 0.02 mL. Assays were incubated with shaking for 1 hour at room temperature. Then the beads were pelleted and washed with wash buffer (lx PBS, 0.05% Tween 20) to remove displaced kinase and test compound. […] The qPCR protocol consisted of a 10 minute hot start at 95° C., followed by 35 cycles of 95° C. for 15 seconds, 60° C. for 1 minute.
Kds were determined using an 11-point 3-fold compound dilution series with three DMSO control points. […] The compounds were then diluted directly into the assays such that the final concentration of DMSO was 0.9%. The Kds were determined using a compound top concentration of 30,000 nM. Kd measurements were performed in duplicate.
Binding constants (Kds) were calculated with a standard dose-response curve using the Hill equation: […]
The Hill Slope was set to −1.

human TYK2 (JH2domain-pseudokinase), sequence (P29597 556-888): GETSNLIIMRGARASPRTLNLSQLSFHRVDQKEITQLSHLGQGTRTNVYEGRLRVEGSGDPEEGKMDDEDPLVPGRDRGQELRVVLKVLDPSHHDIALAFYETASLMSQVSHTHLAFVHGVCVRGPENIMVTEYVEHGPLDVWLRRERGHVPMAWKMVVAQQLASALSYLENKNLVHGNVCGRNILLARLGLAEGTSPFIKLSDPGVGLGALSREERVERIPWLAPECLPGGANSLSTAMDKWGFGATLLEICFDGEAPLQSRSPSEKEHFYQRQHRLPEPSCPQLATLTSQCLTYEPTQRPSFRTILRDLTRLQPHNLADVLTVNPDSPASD

## CNc1cc(Nc2cccn([C@H]3CC[C@H]3O)c2=O)nc2c(C(=O)N[C@@H]3CCC[C@@H](OC)C3)cnn12 [Compound I-104, 5-((1-((1S,2R)-2-Hydroxycyclobutyl)-2-oxo-1,2-dihydropyridin-3-yl)amino)-N-((1R,3R)-3-methoxycyclohexyl)-7-(methylamino)pyrazolo[1,5-a]pyrimidine-3-carboxamide]
  Kd: 1 to 10 nM

## CNc1cc(Nc2cccn(-c3ccccn3)c2=O)nc2c(C(=O)N[C@H]3C[C@H]3F)cnn12 [Compound I-127]
  Kd: < 0.2 nM

## O=C(N[C@@H]1CC[C@H]1F)c1cnn2c3c(c(-c4cn([C@H]5C[C@H](O)C5)c5ncccc45)nc12)OCCN3 [Compound I-758]
  Kd: < 0.2 nM

## CNc1cc(-c2ccc(N3CC[C@H](OC)C3)c3nccn23)nc2c(C(=O)NC3CC[C@H]3O)cnn12 (stereo partly drawn) [Compound I-907]
  Kd: < 0.2 nM

## CNc1cc(Nc2cccn([C@H]3C[C@H](F)C3)c2=O)nc2c(C(=O)N[C@@H]3C[C@H]3OC)cnn12 [Compound I-137]
  Kd: < 0.2 nM

## CNc1cc(Nc2cccn([C@@H]3CC[C@@H]3O)c2=O)nc2c(C(=O)N[C@H]3CC[C@H](OC)C3)cnn12 [Compound I-82, 5-((1-((1R,2S)-2-Hydroxycyclobutyl)-2-oxo-1,2-dihydropyridin-3-yl)amino)-N-((1S,3S)-3-methoxycyclopentyl)-7-(methylamino)pyrazolo[1,5-a]pyrimidine-3-carboxamide]
  Kd: > 10 nM

## CNc1cc(-c2cn(C3CN(C)C3)c3ncccc23)nc2c(C(=O)NC3COC[C@H]3O)cnn12 (stereo partly drawn) [Compound I-714]
  Kd: > 10 nM

## CNc1cc(Nc2cccn([C@H]3CC[C@H]3O)c2=O)nc2c(C(=O)N[C@H]3CCC[C@H](OC)C3)cnn12 [Compound I-105, 5-((1-((1S,2R)-2-Hydroxycyclobutyl)-2-oxo-1,2-dihydropyridin-3-yl)amino)-N-((1S,3S)-3-methoxycyclohexyl)-7-(methylamino)pyrazolo[1,5-a]pyrimidine-3-carboxamide]
  Kd: 1 to 10 nM

## CNc1cc(Nc2cccn([C@H]3CC[C@H]3O)c2=O)nc2c(C(=O)NC3CCC[C@@H](OC)C3)cnn12 (stereo partly drawn) [Compound I-103, 5-((1-((1S,2R)-2-Hydroxycyclobutyl)-2-oxo-1,2-dihydropyridin-3-yl)amino)-N-((trans-1,3)-3-methoxycyclohexyl)-7-(methylamino)pyrazolo[1,5-a]pyrimidine-3-carboxamide]
  Kd: 1 to 10 nM

## CNc1cc(Nc2cccn([C@H]3CC[C@@H]3O)c2=O)nc2c(C(=O)N[C@H]3CCC[C@H](OC)C3)cnn12 [Compound I-97, 5-((1-((1S,2S)-2-Hydroxycyclobutyl)-2-oxo-1,2-dihydropyridin-3-yl)amino)-N-((1S,3S)-3-methoxycyclohexyl)-7-(methylamino)pyrazolo[1,5-a]pyrimidine-3-carboxamide]
  Kd: 1 to 10 nM

## CNc1cc(Nc2cccn([C@H]3CC[C@H]3O)c2=O)nc2c(C(=O)N[C@@H]3CC[C@@H](OC)C3)cnn12 [Compound I-85, 5-((1-((1S,2R)-2-Hydroxycyclobutyl)-2-oxo-1,2-dihydropyridin-3-yl)amino)-N-((1R,3R)-3-methoxycyclopentyl)-7-(methylamino)pyrazolo[1,5-a]pyrimidine-3-carboxamide]
  Kd: 1 to 10 nM

## CNc1cc(-c2cn(C3COC3)c3ncccc23)nc2c(C(=O)N[C@@H]3CC[C@H]3F)cnn12 [Compound I-509]
  Kd: < 0.2 nM

## O=C(N[C@@H]1C[C@@H]1F)c1cnn2c3c(c(Nc4cccn(C5CCOCC5)c4=O)nc12)OCCN3 [Compound I-751, N-((1R,2S)-2-Fluorocyclopropyl)-5-((2-oxo-1-(tetrahydro-2H-pyran-4-yl)-1,2-dihydropyridin-3-yl)amino)-2,3-dihydro-1H-pyrazolo[5′,1′:2,3]pyrimido[5,4-b][1,4]oxazine-7-carboxamide]
  Kd: < 0.2 nM

## CNc1cc(Nc2cccn(C3CC(F)(F)C3)c2=O)nc2c(C(=O)N[C@H]3CC[C@H](OC)C3)cnn12 [Compound I-73, 5-((1-(3,3-Difluorocyclobutyl)-2-oxo-1,2-dihydropyridin-3-yl)amino)-N-((1S,3S)-3-methoxycyclopentyl)-7-(methylamino)pyrazolo[1,5-a]pyrimidine-3-carboxamide]
  Kd: 1 to 10 nM

## CNc1cc(Nc2cccn([C@@H]3C[C@H]3F)c2=O)nc2c(C(=O)N[C@H]3CC[C@@H](O)C3)cnn12 [Compound I-43, 5-((1-((1R,2R)-2-Fluorocyclopropyl)-2-oxo-1,2-dihydropyridin-3-yl)amino)-N-((1S,3R)-3-hydroxycyclopentyl)-7-(methylamino)pyrazolo[1,5-a]pyrimidine-3-carboxamide]
  Kd: 0.2 to 1 nM

## CNc1cc(Nc2cccn(C(C)C)c2=O)nc2c(C(=O)N[C@H]3CC[C@]3(C)O)cnn12 [Compound I-340]
  Kd: < 0.2 nM

## CNc1cc(Nc2cccn([C@H]3C[C@@H]3F)c2=O)nc2c(C(=O)N[C@@H]3CC[C@H]3OC)cnn12 [Compound I-50, 5-((1-((1S,2S)-2-Fluorocyclopropyl)-2-oxo-1,2-dihydropyridin-3-yl)amino)-N-((1R,2R)-2-methoxycyclobutyl)-7-(methylamino)pyrazolo[1,5-a]pyrimidine-3-carboxamide]
  Kd: 1 to 10 nM

## CNc1cc(Nc2cccn([C@@H]3CCC[C@@H]3O)c2=O)nc2c(C(=O)N[C@@H]3CC[C@@H](OC)C3)cnn12 [Compound I-78, 5-((1-((1R,2S)-2-Hydroxycyclopentyl)-2-oxo-1,2-dihydropyridin-3-yl)amino)-N-((1R,3R)-3-methoxycyclopentyl)-7-(methylamino)pyrazolo[1,5-a]pyrimidine-3-carboxamide]
  Kd: 0.2 to 1 nM

## CNc1cc(Nc2cccn(C3CC(F)(F)C3)c2=O)nc2c(C(=O)N[C@@H]3CCC[C@@](C)(O)C3)cnn12 [Compound I-92, 5-((1-(3,3-Difluorocyclobutyl)-2-oxo-1,2-dihydropyridin-3-yl)amino)-N-((1R,3R)-3-hydroxy-3-methylcyclohexyl)-7-(methylamino)pyrazolo[1,5-a]pyrimidine-3-carboxamide]
  Kd: > 10 nM

## CNc1cc(Nc2cccn([C@H]3CCC[C@H]3O)c2=O)nc2c(C(=O)N[C@@H]3CC[C@@H](OC)C3)cnn12 [Compound I-87, 5-((1-((1S,2R)-2-Hydroxycyclopentyl)-2-oxo-1,2-dihydropyridin-3-yl)amino)-N-((1R,3R)-3-methoxycyclopentyl)-7-(methylamino)pyrazolo[1,5-a]pyrimidine-3-carboxamide]
  Kd: > 10 nM

## CNc1cc(-c2cn([C@@H]3COC[C@H]3O)c3ncccc23)nc2c(C(=O)NC3CC3)cnn12 [Compound I-497]
  Kd: < 0.2 nM

## CO[C@@H]1CC[C@H]1NC(=O)c1cnn2c3c(c(Nc4cccn([C@H]5[C@@H]6COC[C@@H]65)c4=O)nc12)OCCN3 [Compound I-763]
  Kd: > 10 nM

## CNc1cc(-c2cn([C@H]3CCCOC3)c3ncccc23)nc2c(C(=O)N[C@@H]3COC[C@@H]3O)cnn12 [Compound I-61, N-((3R,4R)-4-Hydroxytetrahydrofuran-3-yl)-7-(methylamino)-5-(1-((S)-tetrahydro-2H-pyran-3-yl)-1H-pyrrolo[2,3-b]pyridin-3-yl)pyrazolo[1,5-a]pyrimidine-3-carboxamide]
  Kd: 1 to 10 nM

## CO[C@@H]1CCC1NC(=O)c1cnn2c(N)cc(Nc3cccn(-c4ccccn4)c3=O)nc12 (stereo partly drawn) [Compound I-245, 7-Amino-N-((trans-1,2)-2-methoxycyclobutyl)-5-((2-oxo-2H-[1,2′-bipyridin]-3-yl)amino)pyrazolo[1,5-a]pyrimidine-3-carboxamide]
  Kd: < 0.2 nM

## CNc1cc(Nc2cccn([C@@H]3CC[C@@H]3O)c2=O)nc2c(C(=O)N[C@@H]3CCC[C@@H](OC)C3)cnn12 [Compound I-98, 5-((1-((1R,2S)-2-Hydroxycyclobutyl)-2-oxo-1,2-dihydropyridin-3-yl)amino)-N-((trans-1,3)-3-methoxycyclohexyl)-7-(methylamino)pyrazolo[1,5-a]pyrimidine-3-carboxamide]
  Kd: < 0.2 nM

## CNc1cc(Nc2cccn(-c3ncco3)c2=O)nc2c(C(=O)N[C@@H]3CC[C@@H](OC)C3)cnn12 [Compound I-83, N-((1R,3R)-3-Methoxycyclopentyl)-7-(methylamino)-5-((1-(oxazol-2-yl)-2-oxo-1,2-dihydropyridin-3-yl)amino)pyrazolo[1,5-a]pyrimidine-3-carboxamide]
  Kd: 0.2 to 1 nM

## CNc1cc(-c2cnc3n(C4CCN(CCOC)CC4)cccc2-3)nc2c(C(=O)N[C@@H]3CC[C@H]3OC)cnn12 [Compound I-1021, N-((1R,2R)-2-methoxycyclobutyl)-5-(7-(1-(2-methoxyethyl)piperidin-4-yl)-7H-pyrrolo[2,3-b]pyridin-3-yl)-7-(methylamino)pyrazolo[1,5-a]pyrimidine-3-carboxamide]
  Kd: 0.2 to 1 nM

— US11414431B2, “Substituted pyrazolo[1,5-a]pyrimidines as TYK2 inhibitors” (Nimbus Lakshmi, Inc., priority 2018, dated 2022)
